Read-outs that look alike come from different tables or passages of the source. Values belong to the compound of their own block, whether it stands above or below them.
Columns and labels:
HIV = conditions: cited from earlier work; for HIV inhibitory activity: disclosed in earlier patents/applications
visna virus = assay: Plaque reduction assay, inhibition of visna virus in vitro; format: cell-based; set-up: key to Antiviral Activity: A: active compound; I: inactive compound; conditions: for Antiviral Activity: Table 1; for % Plaque Reduction / inhibition at 1 µM / inhibition at 10 µM / inhibition at 100 µM / inhibition at 1000 µM: Table 2; for inhibition at 1 µM / inhibition at 10 µM / inhibition at 100 µM / inhibition at 1000 µM: Visna-maedi virus
Source text: Visna virus, a lentivirus genetically very similar to the AIDS virus, is pathogenic for sheep and goats. See Sonigo et al., Cell 42, 369-382 (1985); Haase, Nature 322, 130-136 (1986). Inhibition of visna virus replication in vitro as a useful model for human immunodeficiency virus (HIV) and its inhibition by test compounds has been described by Franket al., Antimicrobial Agents and Chemotherapy 31 (9), 1369-1374 (1987). The N-butyl derivative of 1,5-dideoxy-1,5-imino-D-glucitol, also referred to as n-butyl-deoxynojirimycin (N-Bu-DNJ), was used as a control standard for comparison with various novel compounds of this invention.
Various compounds as prepared above were tested for inhibition of visna virus in vitro in a plaque reduction assay as follows:
(§1) Sheep choroid plexus (SCP) cells were obtained from American Type Culture Collection (ATCC) catalogue number CRL 1700 and were routinely passaged in vitro in Dulbecco's Modified Eagles (DME) medium supplemented with 20% fetal bovine serum (FBS). SCP cells were passaged once per week at a 1:2 or 1:3 split ratio. Visna was titrated by plaque assay in six-well plates. Virus pools were stored at -70° C.
(§2) SCP cells were cultured in 6-well plates to confluence. Wells were washed two times with serum free Minimal Essential Medium (MEM) to remove FBS. 0.2 ml of virus was added per well in MEM supplemented with 4 mM glutamine and gentamycin. After 1 hour adsorption, the virus was aspirated from each well. The appropriate concentration of each compound in 5 ml of Medium 199 (M-199) supplemented With 2% lamb serum, 4 mM glutamine, 0.5% agarose and gentamycin was added to each well. Cultures were incubated at 37° C. in a humidified 5% CO2 incubator for 3-4 weeks. To terminate the test: cultures were fixed in 10% formalin, the agar removed, the monolayers stained with 1% crystal violet and plaques counted. Each compound concentration was run in triplicate. […] 0 is no toxicity observed while 4 is total lysing of the cell monolayer.

[1] = tested on: Sheep choroid plexus (SCP) cells; assay: Toxicity of compounds in control wells without virus, graded morphologically; format: cell-based; set-up: key: 0: no toxicity; 4: total cell lysates; conditions: 0 to 4 scale, Table 1
Description: as §1, §2

[2] = tested on: Sheep choroid plexus (SCP) cells; assay: as above; format: cell-based
Description: as §1, §2

[3] = tested on: Sheep choroid plexus (SCP) cells; assay: as above; format: cell-based; set-up: key: 0: no toxicity observed; 4: total lysing of the cell monolayer; conditions: graded 0 to 4, Table 2
Description: as §1, §2

[4] = Pharmacokinetic and metabolism study, Rhesus monkey; format: in vivo; conditions: monkey, oral, plasma and urine
Description: The parent tetrabutyrate compound consequently serves as an antivirally effective and useful pro-drug of the latter compound to which it is metabolized in the gut. […] The parent pro-drug was not detected. […] The oral bioactivity of the metabolite compound, measured as [^14 C]-metabolite compound, was determined to be between 28% and 50% in the Rhesus monkey, depending on the vehicle used (e.g., 0.5% methyl cellulose and 0.1% polysorbate in water). […] The blood levels of the metabolite compound, measured as part of a long term SIV infected monkey efficacy study, following oral dosing (high dose 750 mg/kg, low dose 250 mg/kg, administered every eight hours) with the pro-drug, yielded mean trough (cmin) plasma blood levels of the metabolite compound at eight hours post dosing of approximately 10 μg/mL and 6.8 μg/mL for the high and low doses, respectively.

SMILES: Cc1cn([C@H]2C[C@H](N=[N+]=[N-])[C@@H](CO)O2)c(=O)[nH]c1=O [AZT, 3'-azido-3'-deoxythymidine]
inhibition of virus replication in vitro (HIV; in vitro): inhibit replication of the virus in vitro

SMILES: CC(=O)OC[C@H]1NC[C@H](OC(C)=O)[C@@H](OC(C)=O)[C@@H]1OC(C)=O [Example 3, 1,5-Dideoxy-1,5-imino-D-glucitol, tetraacetate]
Antiviral Activity (visna virus; 0.5 mM): A
Antiviral Activity (visna virus; 1.0 mM): A
Toxicity ([1]; 0.5 mM): 0
Toxicity ([1]; 1.0 mM): 0

SMILES: CC(=O)OC[C@@H]1[C@@H](OC(C)=O)[C@H](OC(C)=O)[C@@H](OC(C)=O)CN1C(=O)Cc1ccccc1 [Example 4, 1,5-(Phenylacetylimino)-1,5-dideoxy-D-glucitol-tetraacetate]
Antiviral Activity (visna virus; 0.5 mM): A
Antiviral Activity (visna virus; 1.0 mM): A
Toxicity ([1]; 0.5 mM): 0
Toxicity ([1]; 1.0 mM): 0

SMILES: CC(=O)OC[C@@H]1[C@@H](OC(C)=O)[C@H](OC(C)=O)[C@@H](OC(C)=O)CN1C(=O)c1ccccc1 [Example 5, 1,5-(Benzoylimino)-1,5-dideoxy-D-glucitol, tetraacetate]
Antiviral Activity (visna virus; 0.1 mM): A
Antiviral Activity (visna virus; 0.5 mM): A
Antiviral Activity (visna virus; 1.0 mM): A
Toxicity ([1]; 0.1 mM): 0
Toxicity ([1]; 0.5 mM): 0
Toxicity ([1]; 1.0 mM): 0

SMILES: CCCCN1C[C@H](OC(C)=O)[C@@H](OC(C)=O)[C@H](OC(C)=O)[C@H]1COC(C)=O [Example 7, 1,5-(Butylimino)-1,5-dideoxy-D-glucitol, tetraacetate]
Antiviral Activity (visna virus; 0.1 mM): A
Antiviral Activity (visna virus; 0.5 mM): A
Antiviral Activity (visna virus; 1.0 mM): A
Toxicity ([1]; 0.1 mM): 0
Toxicity ([1]; 0.5 mM): 0
Toxicity ([1]; 1.0 mM): 0

SMILES: CCOC(=O)CC(=O)N1C[C@H](OC(C)=O)[C@@H](OC(C)=O)[C@H](OC(C)=O)[C@H]1COC(C)=O [Example 8, 1,5-(Ethylmalonylimino)-1,5-dideoxy-D-glucitol, tetraacetate]
Antiviral Activity (visna virus; 0.1 mM): A
Antiviral Activity (visna virus; 1.0 mM): A
Toxicity ([1]; 0.1 mM): 0
Toxicity ([1]; 1.0 mM): 0

SMILES: CN1C[C@H](O)[C@@H](O)[C@H](O)[C@H]1CO [Example 9, 1,5-(Methylimino)-1,5-dideoxy-D-glucitol]
HIV inhibitory activity (HIV): HIV inhibitory activity

SMILES: CCCCCCCCCN1C[C@H](OC(C)=O)[C@@H](OC(C)=O)[C@H](OC(C)=O)[C@H]1COC(C)=O [Example 14, 1,5-(Nonylimino)-1,5-dideoxy-D-glucitol, tetraacetate]
Antiviral Activity (visna virus; 0.001 mM): A
Antiviral Activity (visna virus; 0.01 mM): A
Antiviral Activity (visna virus; 0.1 mM): A
Antiviral Activity (visna virus; 1.0 mM): Toxic
Toxicity ([2]; 0.1 mM, 0 to 4 scale, Table 1): 2
Toxicity ([1]; 0.001 mM): 0
Toxicity ([1]; 0.01 mM): 0
Toxicity ([1]; 1.0 mM): 4

SMILES: CCCCN1C[C@H](OC(=O)CC)[C@@H](OC(=O)CC)[C@H](OC(=O)CC)[C@H]1COC(=O)CC [Example 17, 1,5-(Butylimino)-1,5-dideoxy-D-glucitol, tetrapropionate]
Antiviral Activity (visna virus; 0.01 mM): A
Antiviral Activity (visna virus; 0.1 mM): Toxic
Toxicity ([2]; 0.01 mM, 0 to 4 scale, Table 1): 2
Toxicity ([1]; 0.1 mM): 4

SMILES: CCCCN1C[C@H](OC(=O)c2ccccc2)[C@@H](OC(=O)c2ccccc2)[C@H](OC(=O)c2ccccc2)[C@H]1COC(=O)c1ccccc1 [Example 18, 1,5-(Butylimino)-1,5-dideoxy-D-glucitol, tetrabenzoate]
Antiviral Activity (visna virus; 0.1 mM): A
Antiviral Activity (visna virus; 1.0 mM): A
Toxicity ([2]; 0.1 mM, 0 to 4 scale, Table 1): 1
Toxicity ([1]; 1.0 mM): 0

SMILES: CC(=O)OC[C@@H]1[C@@H](OC(C)=O)[C@H](OC(C)=O)[C@@H](OC(C)=O)CN1C(=O)CCc1ccccc1 [Example 20, 1,5-(Hydrocinnamoylimino)-1,5-dideoxy-D-glucitol, tetraacetate]
Antiviral Activity (visna virus; 0.01 mM): A
Antiviral Activity (visna virus; 0.1 mM): A
Antiviral Activity (visna virus; 1.0 mM): A
Toxicity ([2]; 0.1 mM, 0 to 4 scale, Table 1): 1
Toxicity ([2]; 1.0 mM, 0 to 4 scale, Table 1): 2
Toxicity ([1]; 0.01 mM): 0

SMILES: CCCCN1C[C@H](OC(=O)C(C)C)[C@@H](OC(=O)C(C)C)[C@H](OC(=O)C(C)C)[C@H]1COC(=O)C(C)C [Example 22, 1,5-(Butylimino)-1,5-dideoxy-D-glucitol, tetraisobutyrate]
Antiviral Activity (visna virus; 0.01 mM): A
Antiviral Activity (visna virus; 0.1 mM): A
Antiviral Activity (visna virus; 1.0 mM): A
Toxicity ([1]; 0.01 mM): 0
Toxicity ([1]; 0.1 mM): 0
Toxicity ([1]; 1.0 mM): 0

SMILES: CCCCN1C[C@H](OC(C)=O)[C@@H](OC(C)=O)[C@@H]2O[C@H](c3ccccc3)OC[C@H]21 [Example 24, 1,5-(Butylimino)-1,5-dideoxy-4R,6-O-(phenylmethylene)-D-glucitol, diacetate]
Antiviral Activity (visna virus; 1.0 mM): A
Toxicity ([1]; 1.0 mM): 0

SMILES: CC(=O)OC[C@@H]1[C@@H](OC(C)=O)[C@H](OC(C)=O)[C@@H](OC(C)=O)CN1C(=O)CCOc1ccc(Cl)cc1 [Example 51, 1,5-Dideoxy-1,5-[[3-(4-chlorophenoxy)-1-oxopropyl]-imino]-D-glucitol, tetraacetate]
% Plaque Reduction (visna virus; 1.0 mM): Toxic
inhibition at 1 µM (visna virus; 0.001 mM): 12%
inhibition at 10 µM (visna virus; 0.01 mM): 57%
inhibition at 100 µM (visna virus; 0.1 mM): 91%
Toxicity ([2]; 0.1 mM, graded 0 to 4, Table 2): 1
Toxicity ([3]; 0.001 mM): 0
Toxicity ([3]; 0.01 mM): 0
Toxicity ([3]; 1.0 mM): 4

SMILES: CC(=O)OC[C@@H]1[C@@H](OC(C)=O)[C@H](OC(C)=O)[C@@H](OC(C)=O)CN1C(=O)c1ccc(-c2ccccc2)cc1 [Example 53, 1,5-[([1,1'-biphenyl]-4-ylcarbonyl)imino]-1,5-dideoxy-D-glucitol, tetraacetate]
% Plaque Reduction (visna virus; 1.0 mM): Toxic
inhibition at 1 µM (visna virus; 0.001 mM): 28%
inhibition at 10 µM (visna virus; 0.01 mM): 81%
inhibition at 100 µM (visna virus; 0.1 mM): 100%
Toxicity ([2]; 0.1 mM, graded 0 to 4, Table 2): 2
Toxicity ([3]; 0.001 mM): 0
Toxicity ([3]; 0.01 mM): 0
Toxicity ([3]; 1.0 mM): 4

SMILES: CC(=O)OC[C@@H]1[C@@H](OC(C)=O)[C@H](OC(C)=O)[C@@H](OC(C)=O)CN1CCCC(F)(F)F [Example 63, 1,5-(4,4,4-Trifluorobutylimino)-1,5-dideoxy-D-glucitol, tetraacetate]
inhibition at 100 µM (visna virus; 0.1 mM): 2%
inhibition at 1000 µM (visna virus; 1.0 mM): 90%
Toxicity ([2]; 1.0 mM, graded 0 to 4, Table 2): 2
Toxicity ([3]; 0.1 mM): 0

SMILES: CCCC(=O)OC[C@@H]1[C@@H](O)[C@H](OC(=O)CCC)[C@@H](OC(=O)CCC)CN1CCCCCC(F)(F)F [Example 66, 1,5-(6,6,6-Trifluorohexylimino)-1,5-dideoxy-D-glucitol, 2,3,6-tributyrate]
inhibition at 1 µM (visna virus; 0.001 mM): -3%
inhibition at 10 µM (visna virus; 0.01 mM): 38%
inhibition at 100 µM (visna virus; 0.1 mM): 88%
inhibition at 1000 µM (visna virus; 1.0 mM): 100%
Toxicity ([2]; 0.1 mM, graded 0 to 4, Table 2): 1
Toxicity ([2]; 1.0 mM, graded 0 to 4, Table 2): 2
Toxicity ([3]; 0.001 mM): 0
Toxicity ([3]; 0.01 mM): 0

metabolic profiles of either radiolabeled compound (pro-drug, metabolite) [4]: the same in plasma and urine
SMILES: CCCCN1C[C@H](O)[C@@H](O)[C@H](O)[C@H]1CO [N-Bu-DNJ, 1,5-(Butylimino)-1,5-dideoxy-D-glucitol, reference compound]
Antiviral Activity (visna virus; 0.001 mM): I
Antiviral Activity (visna virus; 0.01 mM): I
Antiviral Activity (visna virus; 0.1 mM): A
Antiviral Activity (visna virus; 1.0 mM): A
Toxicity ([2]; 0.1 mM, 0 to 4 scale, Table 1): 1
Toxicity ([2]; 1.0 mM, 0 to 4 scale, Table 1): 2
HIV inhibitory activity (HIV): HIV inhibitory activity
HIV inhibitory activity (HIV; listed as N-butyl derivative of deoxynojirimycin): substantially more effective anti-HIV activity
Toxicity ([1]; 0.001 mM): 0
Toxicity ([1]; 0.01 mM): 0

SMILES: OC[C@H]1NC[C@H](O)[C@@H](O)[C@@H]1O [deoxynojirimycin, 1,5-dideoxy-1,5-imino-D-glucitol]
HIV inhibitory activity (HIV): HIV inhibitory activity

From patent US5310745A, “Antiviral compounds” (priority 1992, dated 1994)
